Each structure is given as a SMILES string. The source made the active and inactive calls. No stated cut-off is given here; in the data, actives have a measured IC50 and inactives only a lower limit.

The IC50 is the concentration at which inhibition is half-maximal.

Sequence of Envelope glycoprotein gp160 (Q6QLK5 whole entry, the tested form may be a part): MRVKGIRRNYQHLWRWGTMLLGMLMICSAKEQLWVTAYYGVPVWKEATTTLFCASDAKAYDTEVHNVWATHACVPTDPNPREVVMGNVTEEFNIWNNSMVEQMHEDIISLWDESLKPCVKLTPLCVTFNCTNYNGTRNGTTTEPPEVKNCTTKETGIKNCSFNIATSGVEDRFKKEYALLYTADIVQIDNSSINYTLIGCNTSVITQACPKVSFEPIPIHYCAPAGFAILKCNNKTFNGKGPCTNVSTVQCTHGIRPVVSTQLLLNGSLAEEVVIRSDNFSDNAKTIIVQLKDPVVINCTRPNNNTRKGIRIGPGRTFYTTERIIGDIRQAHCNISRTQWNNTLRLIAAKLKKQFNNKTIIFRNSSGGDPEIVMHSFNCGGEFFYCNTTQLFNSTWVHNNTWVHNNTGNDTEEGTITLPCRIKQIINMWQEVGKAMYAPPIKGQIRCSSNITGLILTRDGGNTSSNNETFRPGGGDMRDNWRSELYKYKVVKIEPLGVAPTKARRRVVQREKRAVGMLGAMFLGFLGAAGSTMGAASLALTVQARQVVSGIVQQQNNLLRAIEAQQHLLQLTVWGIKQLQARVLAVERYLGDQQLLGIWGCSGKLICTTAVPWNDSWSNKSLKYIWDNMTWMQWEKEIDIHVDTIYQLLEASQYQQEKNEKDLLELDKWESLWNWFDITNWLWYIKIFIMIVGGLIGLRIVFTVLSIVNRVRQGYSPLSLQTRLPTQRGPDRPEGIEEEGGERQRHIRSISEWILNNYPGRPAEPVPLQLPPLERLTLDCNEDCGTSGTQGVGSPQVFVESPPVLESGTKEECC

The assay concerns the target Envelope glycoprotein gp160 (Human immunodeficiency virus 1, UniProt Q6QLK5). The assay can be described thus: inhibitors of HIV fusion peptide binding, primary screen, biochemical, uHTS, fluorescence dequenching (AID 1986).
`Cc1sc(-n2c(C)cc(/C=C3\SC(=S)NC3=O)c2C)c(C#N)c1C`: the IC50 is 24.1 µM (active).
On to `O=C(O)c1[nH]c2ccccc2c1C(c1ccccc1)c1c(C(=O)O)[nH]c2ccccc12`, for which the IC50 was 14 µM (active).
The result for `CCc1ccc(S(=O)(=O)/N=C2\C=C(NS(=O)(=O)c3ccccc3)C(=O)c3ccccc32)cc1` reads 19.7 µM (active).
The result for `O=C(O)C1Nc2ccc(Br)cc2C2C=CCC12` (centres undefined) reads 10.9 µM (active).
